Results reported in ChEMBL document CHEMBL1909046, “DrugMatrix in vitro pharmacology data”.

How the values were obtained:
[1] = DRUGMATRIX: Phorbol Ester radioligand binding (ligand: [3H] PDBu); assay type: cell membranes, Mus musculus, ICR, Brain, Membrane; details: Not Active = under 50% inhibition at 10 µM
[2] = molecular target: T1, Alpha-1B adrenergic receptor (Rattus norvegicus, UniProt P15823); experiment: DRUGMATRIX: Alpha-1B adrenergic receptor radioligand binding (ligand: prazosin); assay type: cell membranes, Wistar, Liver, Membrane; details: Not Active = under 50% inhibition at 10 µM
T1 sequence (P15823 whole entry): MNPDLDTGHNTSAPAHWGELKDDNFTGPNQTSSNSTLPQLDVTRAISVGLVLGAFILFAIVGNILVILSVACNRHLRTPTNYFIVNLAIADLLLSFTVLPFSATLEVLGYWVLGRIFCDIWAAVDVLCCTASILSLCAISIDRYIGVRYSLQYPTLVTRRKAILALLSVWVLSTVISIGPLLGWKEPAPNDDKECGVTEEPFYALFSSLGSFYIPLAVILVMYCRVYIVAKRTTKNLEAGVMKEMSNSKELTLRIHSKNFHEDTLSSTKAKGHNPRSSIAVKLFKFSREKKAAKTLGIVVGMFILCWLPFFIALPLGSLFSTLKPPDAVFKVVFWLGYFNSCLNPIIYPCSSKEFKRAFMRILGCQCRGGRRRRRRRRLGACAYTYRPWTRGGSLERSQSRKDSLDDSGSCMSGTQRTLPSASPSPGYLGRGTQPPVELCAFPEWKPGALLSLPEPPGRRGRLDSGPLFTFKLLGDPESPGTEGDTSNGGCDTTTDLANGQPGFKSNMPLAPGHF

[3] = DRUGMATRIX: beta-Lactamase enzyme inhibition (substrate: Nitrocefin); set-up: species or system Bacillus cereus; details: Not Active = under 50% inhibition at 10 µM
[4] = molecular target: Mitogen-activated protein kinase 14 (Homo sapiens, UniProt Q16539); set-up: species or system Escherichia coli;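 note: inhibition of p38alpha enzyme activity in a biochemical kinase assay, with myelin basic protein serving as substrate; in other assays of this panel Not Active means under 50% inhibition at 10 µM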
Vasopressin V1a receptor = Vasopressin V1a receptor (Homo sapiens, UniProt P37288); assay type: cell membranes, Membrane; details: hek293; note: in other assays of this panel Not Active means under 50% inhibition at 10 µM
[5] = DRUGMATRIX: ATPase, Na+/K+ enzyme inhibition (substrate: ATP); assay type: tissue-based, Sus scrofa, Heart; details: Not Active = under 50% inhibition at 10 µM
[6] = molecular target: T2, Alpha-1D adrenergic receptor (Homo sapiens, UniProt P25100); assay type: cell membranes, HEK293, Membrane; details: hek293; note: in other assays of this panel Not Active means under 50% inhibition at 10 µM
T2 sequence (P25100 whole entry): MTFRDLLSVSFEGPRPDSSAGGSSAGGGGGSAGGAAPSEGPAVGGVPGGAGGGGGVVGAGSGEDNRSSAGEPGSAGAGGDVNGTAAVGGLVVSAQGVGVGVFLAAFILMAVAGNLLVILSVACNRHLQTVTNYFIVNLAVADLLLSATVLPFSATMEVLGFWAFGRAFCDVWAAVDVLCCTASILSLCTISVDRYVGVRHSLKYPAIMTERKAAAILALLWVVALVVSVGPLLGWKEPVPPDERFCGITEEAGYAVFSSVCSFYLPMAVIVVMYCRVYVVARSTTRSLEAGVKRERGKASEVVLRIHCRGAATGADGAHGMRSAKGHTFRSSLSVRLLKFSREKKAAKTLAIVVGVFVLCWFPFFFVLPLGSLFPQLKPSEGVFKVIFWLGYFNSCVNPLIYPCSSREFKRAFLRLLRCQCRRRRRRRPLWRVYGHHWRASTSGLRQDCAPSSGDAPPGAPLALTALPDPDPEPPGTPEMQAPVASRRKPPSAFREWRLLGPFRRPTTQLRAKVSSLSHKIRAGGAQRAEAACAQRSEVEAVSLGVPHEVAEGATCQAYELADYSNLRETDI

Mitogen-activated protein kinase 14, sequence (Q16539 whole entry): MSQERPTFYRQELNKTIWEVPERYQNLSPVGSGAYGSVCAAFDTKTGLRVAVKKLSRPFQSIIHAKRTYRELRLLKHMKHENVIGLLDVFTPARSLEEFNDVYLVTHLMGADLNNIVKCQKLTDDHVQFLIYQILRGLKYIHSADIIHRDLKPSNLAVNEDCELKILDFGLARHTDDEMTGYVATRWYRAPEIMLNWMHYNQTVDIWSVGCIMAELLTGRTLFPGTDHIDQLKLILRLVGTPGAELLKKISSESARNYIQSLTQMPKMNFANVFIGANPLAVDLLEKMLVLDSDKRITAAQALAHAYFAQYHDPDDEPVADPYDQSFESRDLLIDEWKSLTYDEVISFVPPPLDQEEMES
Vasopressin V1a receptor, sequence (P37288 whole entry): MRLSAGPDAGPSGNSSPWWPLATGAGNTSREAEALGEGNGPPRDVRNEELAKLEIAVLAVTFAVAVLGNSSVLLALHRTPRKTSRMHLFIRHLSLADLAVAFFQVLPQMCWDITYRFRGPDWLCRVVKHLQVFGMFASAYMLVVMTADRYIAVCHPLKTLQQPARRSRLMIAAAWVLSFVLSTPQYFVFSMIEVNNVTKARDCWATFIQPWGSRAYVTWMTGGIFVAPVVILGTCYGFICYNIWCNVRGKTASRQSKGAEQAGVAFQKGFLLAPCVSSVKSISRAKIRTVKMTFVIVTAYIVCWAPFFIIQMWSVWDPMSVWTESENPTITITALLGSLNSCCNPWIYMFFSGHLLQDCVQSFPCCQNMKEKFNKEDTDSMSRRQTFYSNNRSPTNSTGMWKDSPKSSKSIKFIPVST

| Compound | IC50 [1] | Ki [1] | IC50 [2] | IC50 ([3]; read-out: IC50) | IC50 ([4]; read-out: IC50) | IC50 (Vasopressin V1a receptor) | IC50 [5] | Ki [5] | IC50 [6] | IC50 [3] | Ki [3] | IC50 [4] |
| --- | --- | --- | --- | --- | --- | --- | --- | --- | --- | --- | --- | --- |
| COC(=O)Nc1nc2ccc(Sc3ccccc3)cc2[nH]1 [FENBENDAZOLE] | Not Active | Not Active | Not Active | 5.99 µM | 3.19 µM | Not Active | Not Active | Not Active | Not Active |  |  |  |
| CC12CCC(CC1)C(C)(C)O2 [EUCALYPTOL] | Not Active | Not Active | Not Active |  |  | Not Active | Not Active | Not Active | Not Active | Not Active | Not Active | Not Active |
| O=C(Nc1ccc(Cl)c(Cl)c1)c1cc(Cl)cc(Cl)c1O [3,3',4',5-TETRACHLOROSALICYLANILIDE] | Not Active | Not Active | Not Active |  | 2.18 µM | Not Active | Not Active | Not Active | Not Active | Not Active | Not Active |  |
| Cc1ccnc2c1NC(=O)c1cccnc1N2C1CC1 [NEVIRAPINE] | Not Active | Not Active | Not Active |  |  | Not Active | Not Active | Not Active | Not Active | Not Active | Not Active | Not Active |
| O=C1CN(/N=C/c2ccc([N+](=O)[O-])o2)C(=O)N1 [NITROFURANTOIN] | Not Active | Not Active | Not Active |  |  | Not Active | Not Active | Not Active | Not Active | Not Active | Not Active | Not Active |
| O=c1[nH]c2ccccc2c2ccccc12 | Not Active | Not Active | Not Active |  |  | Not Active | Not Active | Not Active | Not Active | Not Active | Not Active | Not Active |
| COC(=O)C[C@](O)(CCC(C)(C)O)C(=O)O[C@@H]1C(OC)=C[C@]23CCCN2CCc2cc4c(cc2[C@H]13)OCO4 [HARRINGTONINE] | Not Active | Not Active | Not Active |  |  | Not Active | Not Active | Not Active | Not Active | Not Active | Not Active | Not Active |
| Nc1nc(F)nc2c1ncn2[C@@H]1O[C@H](CO)[C@@H](O)[C@@H]1O [FLUDARABINE] | Not Active | Not Active | Not Active |  |  | Not Active | Not Active | Not Active | Not Active | Not Active | Not Active | Not Active |
| C=C(Cl)Cl [1,1-DICHLOROETHENE] | Not Active | Not Active | Not Active |  |  | Not Active | Not Active | Not Active | Not Active | Not Active | Not Active | Not Active |
| CC[C@H]1OC(=O)[C@H](C)[C@@H](O[C@H]2C[C@@](C)(OC)[C@@H](O)[C@H](C)O2)[C@H](C)[C@@H](O[C@@H]2O[C@H](C)C[C@H](N(C)C)[C@H]2O)[C@](C)(O)C[C@@H](C)C(=O)[C@H](C)[C@@H](O)[C@]1(C)O [ERYTHROMYCIN] | Not Active | Not Active | Not Active |  |  | Not Active | Not Active | Not Active | Not Active | Not Active | Not Active | Not Active |
| CCC1(c2ccccc2)C(=O)NC(=O)NC1=O [PHENOBARBITAL] | Not Active | Not Active | Not Active |  |  | Not Active | Not Active | Not Active | Not Active | Not Active | Not Active | Not Active |
